Experimental data: patent publication US10561638B2, “Methods for treating dependence” (Biotie Therapies, Inc., priority 2007, dated 2020)

Experiments:
[1] = biological target: T1, human dopamine β-hydroxylase (Homo sapiens, UniProt P09172); experiment: DBH assay, conversion of tyramine to octopamine; type: biochemical
T1 construct: Human secretory DBH was purified from the culture medium of the neuroblastoma cell line SK-N-SH; endogenous in cells; host or cells: SK-N-SH neuroblastoma cells (enzyme secreted into the culture medium, purified on lentil lectin-sepharose)
T1 sequence (P09172 40-617 limits assumed): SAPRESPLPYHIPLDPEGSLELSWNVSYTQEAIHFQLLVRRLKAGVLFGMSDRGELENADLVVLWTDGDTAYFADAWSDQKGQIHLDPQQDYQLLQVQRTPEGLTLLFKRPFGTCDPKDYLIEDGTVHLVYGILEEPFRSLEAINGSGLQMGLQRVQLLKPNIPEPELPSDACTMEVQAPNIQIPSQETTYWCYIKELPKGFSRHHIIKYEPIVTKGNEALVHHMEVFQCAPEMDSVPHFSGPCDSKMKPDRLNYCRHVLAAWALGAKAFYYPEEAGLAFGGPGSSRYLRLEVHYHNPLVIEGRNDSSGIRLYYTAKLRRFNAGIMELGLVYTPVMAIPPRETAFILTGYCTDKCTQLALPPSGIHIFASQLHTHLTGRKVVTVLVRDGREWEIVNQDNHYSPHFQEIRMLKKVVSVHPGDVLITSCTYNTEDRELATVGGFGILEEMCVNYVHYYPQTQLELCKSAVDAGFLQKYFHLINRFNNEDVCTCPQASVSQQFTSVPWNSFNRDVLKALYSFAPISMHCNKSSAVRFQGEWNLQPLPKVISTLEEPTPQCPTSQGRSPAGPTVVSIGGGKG
Experimental: Bovine and human dopamine β-hydroxylase activity were assayed by measuring the conversion of tyramine to octopamine. Bovine adrenal dopamine β-hydroxylase was obtained from Sigma Chemicals (St Louis, Mo., USA) whereas human dopamine β-hydroxylase was purified from the culture medium of the neuroblastoma cell line SK-N-SH. The assay was performed at pH 5.2 and 32° C. in a medium containing 0.125 M NaAc, 10 mM fumarate, 0.5-2 μM CuSO4, 0.1 mg·ml^−1 catalase, 0.1 mM tyramine and 4 mM ascorbate. In a typical assay, 0.5-1 milliunits of enzyme were added to the reaction mixture and, subsequently, a substrate mixture containing catalase, tyramine and ascorbate was added to initiate the reaction (final volume of 200 μl). Samples were incubated with or without the appropriate concentration of nepicastat or Compound B at 37° C. for 30 to 40 minutes. The reaction was quenched by the stop solution containing 25 mM EDTA and 240 μM 3-hydroxytyramine (internal standard). The samples were analyzed for octopamine by reverse phase high pressure liquid chromatography (HPLC) using ultraviolet-detection at […]. The HPLC chromatography run was carried out at the flow rate of 1 ml·min^−1 using a LiChroCART 125-4 RP-18 column and isocratic elution with 10 mM acidic acid, 10 mM 1-heptane sulfonic acid, 12 mM tetrabutyl ammonium phosphate and 10% methanol. The remaining percent activity was calculated based on controls, corrected using internal standards and fitted to a non-linear four-parameter concentration-response curve.
DBH activity was assayed by measuring the conversion of tyramine to octopamine. Bovine DBH from adrenal glands was obtained from Sigma Chemical Co (St Louis, Mo.). Human secretory DBH was purified from the culture medium of the neuroblastoma cell line SK-N-SH. The assay was performed at pH 5.2 and 32° C. in 0.125 M NaOAc, 10 mM fumarate, 0.5-2 μM CUSO4, 0.1 mg/mL catalase, 0.1 mM tyramine and 4 mM ascorbate. In a typical assay, 0.5-1 milliunits of enzyme were added to the reaction mixture and then a substrate mixture containing catalase, tyramine and ascorbate was added to initiate the reaction (final volume of 200 μL). Samples were incubated with or without the appropriate concentration of the inhibitor at 37° C. for 30-40 min. The reaction was quenched by the stop solution containing 25 mM EDTA and 240 μM 3-hydroxytyramine (internal standard). The samples were analyzed for octopamine by reverse phase HPLC using UV detection at […]. The remaining percent activity was calculated based on controls (without inhibitor), corrected using internal standards and fitted to a non-linear 4-parameter concentration-response curve to obtain IC50 values.
Bovine DBH from adrenal glands was obtained from Sigma Chemicals (St. Louis, Mo.). Human secretory DBH was purified from the culture medium of the neuroblastoma cell line SK-N-SH and was used to obtain the inhibition data. A lentil lectin-sepharose column containing 25 ml gel was prepared and equilibrated with 50 mM KH2PO4, pH 6.5, 0.5 M NaCl. The column was eluted with 35 ml of 10% methyl a, D-mannopyranoside in 50 mM KH2PO4, pH 6.5, 0.5 M NaCl at 0.5 ml/min. Fraction containing most enzymatic activities were pooled and concentrated with an Amicon stirred cell using a YM30 membrane. Methyl a, D-mannopyranoside was removed by buffer exchange with in 50 mM KH2PO4, pH 6.5, 0.1M NaCl. The concentrated enzyme solution was aliquoted and stored at −25° C.
An HPLC assay was used to measure DBH activity using tyramine and ascorbate as substrates. […]

[2] = Phase I single- and multiple-dose studies in healthy men; type: in vivo, human

| Compound | IC50 ([1]; 0.1 mM tyramine, 4 mM ascorbate, pH 5.2) | selectivity for dopamine-β-hydroxylase over the other enzymes studied [1] | potency of nepicastat relative to SKF-102698 ([1]; human DBH) | potency of nepicastat relative to SKF-102698 ([1]; human and bovine DBH) | potency of nepicastat relative to the R-enantiomer ([1]; human and bovine DBH) | potency of nepicastat relative to Compound B ([1]; human enzyme) | subjects who developed a rash ([2]; 200 mg for 8 days or longer) | tolerability, multiple-dose Phase I study ([2]; 5 and 40 mg, healthy men) | effect on mood, sleep, cognition ([2]; 5 or 40 mg) | tolerability, single-dose Phase I studies ([2]; 5 to 800 mg, healthy men) | cardiac adverse event in one subject ([2]; after 6 days of dosing with 200 mg) |
| --- | --- | --- | --- | --- | --- | --- | --- | --- | --- | --- | --- |
| Fc1cc(F)cc(Cn2cc[nH]c2=S)c1 [SKF-102698, reference compound] | 85 ± 3.7 nM | – | – | – | – | – | – | – | – | – | – |
| Cl.NCc1c[nH]c(=S)n1[C@H]1CCc2c(F)cc(F)cc2C1 [nepicastat, (S)-5-Aminomethyl-1-(5,7-difluoro-1,2,3,4-tetrahydronaphth-2-yl)-2,3-dihydro-2-thioxo-1H-imidazole hydrochloride] | – | > 1000 fold | 9 fold | 8-9 fold | 2-3 fold | 2 fold | Five of the 6 subjects | generally well tolerated | no significant impairment of mood, sleep, or cognition | generally well tolerated | atrial arrhythmias and intermittent right bundle branch block |
